This is an account of results in ChEMBL document CHEMBL3045822, “Growth retarding activity of lichen substances against the polyphagous herbivorous insect Spodoptera littoralis” (1994).

For assay [1], the system named is Spodoptera littoralis. The assay can be described thus: Toxicity against neonate larval stage of Spodoptera littoralis fed with diet containing compound assessed as reduction in larval survival measured per gm dry weight after 6 days by chronic feeding assay. Type of assay: functional. The following applies: 144 h, read-out: ED50.
For assay [2], the system named is Spodoptera littoralis. Nature of the assay: Growth retarding activity against neonate larval stage of Spodoptera littoralis fed with diet containing compound measured per gm of dry weight after 6 days by chronic feeding bioassay. Format: functional. As to conditions: 144 h, read-out: ED50.
Assay [3] concerns Spodoptera littoralis. Nature of the assay: Growth retarding activity against neonate larval stage of Spodoptera littoralis fed with diet containing compound assessed as larval weight at 70 umol/gm dry weight after 6 days by chronic feeding bioassay (reference value: 100%). Type of assay: functional.
Assay [4] relates to Spodoptera littoralis. Nature of the assay: Growth retarding activity against neonate larval stage of Spodoptera littoralis fed with diet containing compound assessed as larval weight after 6 days by chronic feeding bioassay (reference value: 100%). Format: functional.
Assay [5] has as its system Spodoptera littoralis. Nature of the assay: Toxicity against neonate larval stage of Spodoptera littoralis fed with diet containing compound assessed as reduction in larval survival at 15 to 110 umol/gm dry weight after 6 days by chronic feeding assay. Format: functional, organism-based.
Assay [6] concerns Spodoptera littoralis. The assay can be described thus: Prolongation of duration of larval period in Spodoptera littoralis fed with diet containing compound at 110 umol/gm dry weight treated for 6 days measured after transferring onto control diet by chronic feeding bioassay (reference value: 17 to 20 days). Type of assay: functional.
The test system of assay [7] is Spodoptera littoralis. Nature of the assay: Induction of imago developmental aberrations with imperfect wings in Spodoptera littoralis fed with diet containing compound at 110 umol/gm dry weight treated for 6 days measured after transferring onto control diet by chronic feeding bioassay. Format: functional.
Assay [8] relates to Spodoptera littoralis. Nature of the assay: Change in pupal weight of Spodoptera littoralis fed with diet containing compound at 110 umol/gm dry weight treated for 6 days measured after transferring onto control diet by chronic feeding bioassay (reference value: 0.40 +/-0.05 gms). Format: functional.
Assay [9] concerns Spodoptera littoralis. The assay can be described thus: Growth retarding activity against neonate larval stage of Spodoptera littoralis fed with diet containing compound assessed as larval weight at 94 umol/gm dry weight after 6 days by chronic feeding bioassay (reference value: 100%). Type of assay: functional.
For assay [10], the system named is Spodoptera littoralis. The assay can be described thus: Growth retarding activity against neonate larval stage of Spodoptera littoralis fed with diet containing compound assessed as larval weight at 41 umol/gm dry weight after 6 days by chronic feeding bioassay (reference value: 100%). Type of assay: functional.
Assay [11] deals with Spodoptera littoralis. Nature of the assay: Reduction in number of imagoes emerging from pupae in Spodoptera littoralis fed with diet containing compound at 110 umol/gm dry weight after 6 days by chronic feeding bioassay (reference value: 90%). Type of assay: functional. On the set-up: scale not given: the % may be the effect or the level left.
For assay [12], the system named is Spodoptera littoralis. The assay can be described thus: Growth retarding activity against neonate larval stage of Spodoptera littoralis fed with diet containing compound assessed as larval weight at 104 umol/gm dry weight after 6 days by chronic feeding bioassay (reference value: 100%). Format: functional.

The structures appear in SMILES notation. Activity calls are given as the source filed them. The rule behind the calls is not given here. Where only a bound is given, the exact number is not on record here.

`CC(=O)C1=C(O)C=C2Oc3c(C(C)=O)c(O)c(C)c(O)c3[C@@]2(C)C1=O` [(+)-USNIC ACID]: the results for the EC50 in assay [1] and in [2] were 90.8 µmol/g and 4.5 µmol/g, respectively.

With `CC(=O)C1=C(O)C=C2Oc3c(C(C)=O)c(O)c(C)c(O)c3[C@]2(C)C1=O` [(-)-USNIC ACID], the EC50 in assay [1] stood at 8.6 µmol/g; in assay [2], 1.2 µmol/g.

As to `COC(=O)c1c(C)cc(OC(=O)c2c(C)cc(O)c(C=O)c2O)c(C)c1O` [ATRANORIN], the EC50 in assay [2] is greater than 110 µmol/g. The results for the Activity in assay [3] and in [4] were 52% and 51%, respectively. Moreover, the outcome in [5] was inactive.

In the case of `O=C1O/C(=C2/C(=O)Oc3ccccc32)C(O)=C1c1ccccc1` [CALYCIN], in [6], the Time was 21 days. Besides, the EC50 in [2] came out at 37.6 µmol/g. Besides, the Activity in assay [7] was determined as 44%; in assay [8], 0.33 g. In addition, in assay [5], the result was inactive.

With `COc1cc(C)c(C(=O)Oc2cc(C)c(C(=O)O)c(O)c2)c(O)c1` [EVERNIC ACID], the EC50 in assay [2] is greater than 110 µmol/g. Also, in assay [5], the outcome was inactive.

With `Cc1cc(O)c(C=O)c2c1C(=O)Oc1c(COC(=O)/C=C/C(=O)O)c(O)c(C(=O)O)c(C)c1O2` [FUMARPROTOCETRARIC ACID], in assay [6], the Time was found to be 24 days. For the same molecule, in assay [2], the EC50 turned out to be 30.5 µmol/g. The outcome in [5] was inactive. The molecule further returned an Activity in assay [8] of 0.45 g.

Consider `Cc1cc(O)c(C=O)c2c1C(=O)Oc1c(C)c(O)c3c(c1O2)C(O)OC3=O` (stereo not drawn) [NORSTICTIC ACID], for which, in [6], the Time turned out to be 17 days. The EC50 in [2] was found to be 32 µmol/g. The Activity in [4] came to 18%; in assay [9] it was 18%; in assay [8], 0.33 g. Also, the result in [5] was inactive.

In the case of `CCCCCC(=O)Cc1cc(O)c(O)c2c1C(=O)Oc1cc(O)c(C(=O)O)c(CCCCC)c1O2` [OXYPHYSODIC ACID], the Activity in [10] was 15%; in [7] it was 50%; in assay [8], 0.33 g. In [6], this molecule registered a Time of 19 days. The EC50 in assay [2] is 11.2 µmol/g. Besides, the outcome in assay [5] was inactive.

With `CCCCCC(=O)Cc1cc(O)cc2c1C(=O)Oc1cc(O)c(C(=O)O)c(CCCCC)c1O2` [PHYSODIC ACID], the EC50 in assay [2] is greater than 110 µmol/g. Besides, the outcome in assay [5] was inactive.

Molecule `COc1cc(C(=O)O)c2c(c1C)OC(=O)c1c(C)cc(O)c(C=O)c1O2` [PSOROMIC ACID] showed a Time in assay [6] of 20 days. Also, in assay [2], the EC50 was determined as 46.2 µmol/g. In addition, the result in [5] was inactive. This molecule had an Activity in assay [8] of 0.41 g.

For `O=C1OC2=C(c3ccccc3)C(=O)OC2=C1c1ccccc1` [PULVINIC DILACTONE], in assay [2], the EC50 is greater than 110 µmol/g. Moreover, in assay [5], the outcome was inactive.

On to `COC(=O)C(Cc1ccccc1)NC(=O)/C(=C1/OC(=O)C(c2ccccc2)=C1O)c1ccccc1` (stereo not drawn) [RHIZOCARPIC ACID], for which the Time in [6] amounted to 19 days. In addition, in assay [2], the EC50 was 70.8 µmol/g. Also, the Activity in [11] is 25%; in [8], 0.28 g. The outcome in [5] was inactive.

In turn, `Cc1cc(O)c(C=O)c2c1C(=O)Oc1c(CO)c(O)c3c(c1O2)C(O)OC3=O` (stereo not drawn) [SLAZINIC ACID] registered a Time in assay [6] of 24 days. In assay [2], the EC50 was found to be 29.2 µmol/g. Moreover, the result in assay [5] was inactive. The molecule further displayed an Activity in assay [8] of 0.4 g.

`COc1cc(C)c2c(c1C=O)Oc1c(c(C)c(O)c3c1C(O)OC3=O)OC2=O` (stereo not drawn) [STICTIC ACID] came in with a Time in assay [6] of 20 days. Also, the Activity in assay [12] came to 27%; in [8], 0.41 g. Also, in assay [2], the EC50 turned out to be 57.5 µmol/g. The result in [5] was inactive.

Take `COC(=O)/C(=C1/OC(=O)C(c2ccccc2)=C1O)c1ccccc1` [VULPINIC ACID]: in [6], the Time came to 23 days. For the same molecule, the EC50 in [2] amounted to 17.2 µmol/g. The Activity in [7] came to 14%; in assay [8] it was 0.32 g. Moreover, in [5], the outcome was inactive.
